pIC50: −log10 of the molar value.
These compounds were tested against T1, cyclooxygenase-1 (Cox-1) (Ovis aries, UniProt P05979) (assay: Colorimetric Cox inhibitor screening assay (Cayman Chemical, Cat. No. 760111)). Conditions: at concentrations of up to 300uM.
T1 construct: purchased Cayman Chemical Company 760111
T1 sequence (P05979 25-600): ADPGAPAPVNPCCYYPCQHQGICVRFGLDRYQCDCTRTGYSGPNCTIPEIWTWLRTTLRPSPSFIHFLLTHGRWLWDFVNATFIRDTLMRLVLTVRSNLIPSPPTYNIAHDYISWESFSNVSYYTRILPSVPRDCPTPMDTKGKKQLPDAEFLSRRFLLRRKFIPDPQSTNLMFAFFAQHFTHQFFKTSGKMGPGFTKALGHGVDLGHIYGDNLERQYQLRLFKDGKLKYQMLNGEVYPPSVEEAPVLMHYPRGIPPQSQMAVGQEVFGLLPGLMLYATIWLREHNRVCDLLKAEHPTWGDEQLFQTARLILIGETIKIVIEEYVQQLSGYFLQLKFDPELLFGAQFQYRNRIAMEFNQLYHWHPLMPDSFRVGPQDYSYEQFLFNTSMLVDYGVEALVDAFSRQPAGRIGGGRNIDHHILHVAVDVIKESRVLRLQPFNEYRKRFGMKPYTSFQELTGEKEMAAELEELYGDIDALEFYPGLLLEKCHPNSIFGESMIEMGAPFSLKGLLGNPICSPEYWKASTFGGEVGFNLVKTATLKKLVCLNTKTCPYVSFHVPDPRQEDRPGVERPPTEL
Format: biochemical
Description: Inhibition of Cox-1 was determined using the Colorimetric Cox inhibitor screening assay provided by Cayman Chemical Company, Ann Arbor, MI, USA. (Cat. No. 760111) according to manufacturer's instructions. Exemplary studies were carried out using 2-(4'-trifluoromethyl-biphenyl-3-yl)-propionic acid.

Row | SMILES | effect on the Cox-1 activity
1 | CC(C(=O)O)c1cccc(-c2ccc(C(F)(F)F)cc2)c1 (stereo not drawn) [2-(4'-Trifluoromethyl-biphenyl-3-yl)-propionic acid] | No significant effect

The compounds below were run on γ-secretase (assay: Screening for γ-secretase-modulating activity in SKN neuroblastoma cells carrying the APP "swedish mutation" (assay of Citron et al 1997)). Conditions: not given.
Format: cell-based
Description: Screening was carried out using SKN neuroblastoma cells carrying the APP-"swedish mutation" (point mutation at 695 of APP) grown in DMEM/NUT-mix F12 (HAM) provided by Gibco (cat no. 31330-38) containing 5% Serum/Fe supplemented with 1% non-essential amino acids, 100 U/ml Pen/Strep. Cells were grown to near confluency. The screening was performed using the assay as described in Citron et al (1997), Nature Medicine. Vol 3: 67-72

Row | SMILES | pIC50
2 | C[C@@H](C(=O)O)c1ccc(-c2ccccc2)c(F)c1 [R-Flurbiprofen, reference compound] | 3.61
3 | CC(C(=O)O)c1cccc(-c2ccc(C(F)(F)F)cc2)c1 (stereo not drawn) [2-(4'-Trifluoromethyl-biphenyl-3-yl)-propionic acid] | 4.62
4 | CC(C(=O)O)c1cccc(-c2ccc(OC(F)(F)F)cc2)c1 (stereo not drawn) [2-(4'-Trifluoromethoxy-biphenyl-3-yl)-propionic acid] | 4.12
5 | O=C(O)Cc1cccc(-c2ccc(C(F)(F)F)cc2)c1 [(4'-Trifluoromethyl-biphenyl-3-yl)-acetic acid] | 4.08
6 | CC(C(=O)O)c1cccc(-c2ccc(Cl)cc2)c1 (stereo not drawn) [2-(4'-Chloro-biphenyl-3-yl)-propionic acid] | 4.39

Source: patent EP1604970A1, “2-(Biphenyl-3-yl)-carboxylic acids of gamma-secretase-modulating activity” (CELLZOME AG, priority 2004, dated 2005)
